This passage reports IC50 results from PubChem BioAssay AID651563 (Sanford-Burnham Center for Chemical Genomics, 2012).

The source made the active and inactive calls.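 Rule for the calls: active = compounds whose IC50 is 20 micromolar or lower, counted as confirmed SKN-1 reporter blockers; inactive = the rest.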

In general, IC50 refers to the concentration that gives 50% inhibition.

The subject of the experiment is C. elegans VP596 Pgst-4::GFP/RFP ratio, acrylamide, 24 h. The experiment in a line: C. elegans gst-4 reporter suppression, concentration series – whole organism, GFP/RFP fluorescence ratio, set 2, strain VP596, SKN-1 inhibitor project, dose response (AID 651563).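 Note: red signal is driven by the dop-3 promoter and serves as the normalizer.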
In the case of `Clc1ccc(-c2nc3cc(CN4CCCCC4)ccc3o2)cc1`, the IC50 is 87.7 µM (inactive).

As to `CCOc1cc(CNCCSc2nnnn2C)cc(Br)c1OCc1ccc(F)cc1`, the IC50 was 2.73 µM.

Take `Cc1ccc(NC(=O)c2ccc(F)cc2F)cc1`: the IC50 is > 100 µM (inactive).

As to `Nc1ccc2c(Cl)cc(Cl)cc2c1`, the IC50 is 28.5 µM (inactive).

For the compound `O=C(Nc1ccc(Cl)cn1)c1ccccc1F`, the IC50 was 20.6 µM (inactive).

As for `c1ccc(-c2ccc(-n3ccnc3)cc2)cc1`, the IC50 was 10.6 µM.

In the case of `CCN(CC)Cc1ccc(NC(=O)c2sc3cc(Cl)ccc3c2Cl)cc1`, the IC50 is 13.8 µM.

On to `O=C(/C=C/Nc1ccc(F)c(F)c1)c1cccs1`, for which the half-maximal inhibitory concentration (IC50) was 11.4 µM.

As for `O=C(Nc1ccc(-c2nnc(-c3ccccc3)o2)cc1)c1ccc(Br)o1`, the IC50 was > 100 µM (inactive).

For `Fc1ccc(-n2nnc(-c3cccnc3Cl)n2)cc1`, the IC50 was 8.82 µM.

For `O=C(/C(C=Nc1ccc(Br)cc1)=C(/O)c1ccco1)C(F)(F)F`, the IC50 was 21 µM (inactive).

In the case of `N/C(=N\OC(=O)c1cc(Br)ccc1Cl)c1ccccn1`, the IC50 was 53.5 µM (inactive).

Consider `CC(C)c1ccc(C(=O)Nc2ccc(CN3CCOCC3)cc2)cc1`, for which the IC50 is 4.79 µM.

For the compound `Brc1cccc(OCCSc2ncccn2)c1`, the IC50 was > 100 µM (inactive).

With `COc1ccc(C(=O)Nc2nc(-c3cccs3)cs2)cc1`, the IC50 is 24.6 µM (inactive).

For the compound `CN1CCN(c2ccc(NC(=O)c3ccc(Oc4ccccc4)cc3)cc2)CC1`, the IC50 is 12.5 µM.

In the case of `Brc1ccc(-c2cn3ccccc3n2)s1`, the IC50 was 18.1 µM.

On to `COc1cc(CNC2CCCC2)cc(Cl)c1OCc1ccc(F)cc1`, for which the IC50 is 11.8 µM.

Take `Cc1cc(-c2nc3cc(F)ccc3s2)ccc1N`: the IC50 was 18.3 µM.

For `O=C(Nc1nc(-c2ccc(Cl)s2)cs1)c1ccccc1`, the IC50 is 13.2 µM.

Turning to `Clc1ccc(N2CCN(c3ccnc(Cl)n3)CC2)cc1`, the IC50 was 17.7 µM.

On to `COc1cc(SC)ccc1C(=O)Nc1nccs1`, for which the IC50 is > 100 µM (inactive).

As to `O=C(C=Cc1ccccc1)CC(c1ccccc1)N1CCOCC1` (stereo unspecified), the IC50 is 10.2 µM.

With `O=[N+]([O-])c1ccc2cn(-c3ccccc3)nc2c1`, the IC50 is 2.81 µM.

On to `Fc1ccc(COc2ccc(-c3nnco3)cc2)cc1`, for which the IC50 was 7.45 µM.

Regarding `O=C(c1cccs1)c1ccc(-c2cccs2)s1`, the IC50 was 9.1 µM.

In the case of `Fc1ccc(CSc2ncnc3ccccc23)cc1`, the IC50 is 24.2 µM (inactive).

On to `C(=C\c1nc(-c2ccncc2)no1)/c1ccccc1`, for which the IC50 was 19.1 µM.

With `N=C1C=CC(=C(c2ccc(N)cc2)c2ccc(N)cc2)C=C1`, the IC50 is 20.2 µM (inactive).

On to `O=C(Nc1nc(SCc2ccc(F)cc2)ns1)c1ccco1`, for which the IC50 was > 100 µM (inactive).

For `O=C(Nc1nc(-c2ccc(Cl)s2)cs1)c1cccs1`, the IC50 was 6.63 µM.

For `CCOc1cc(CNC2CCCC2)cc(Cl)c1OCc1ccc(F)cc1`, the IC50 was 2.85 µM.

With `Cc1ccc(N=C/C(C(=O)C(F)(F)F)=C(\O)c2ccco2)cc1Cl`, the IC50 was 14.3 µM.

Take `Fc1ccc(-c2nc3ccc(Cl)cn3c2Cc2ccsc2)cc1`: the IC50 was > 100 µM (inactive).

On to `Clc1cccc(CSc2ncn(-c3ccccc3)n2)c1`, for which the IC50 is 37.5 µM (inactive).

In the case of `O=C(/C=C/Nc1ccc(Br)cc1F)c1ccco1`, the IC50 was 2.19 µM.

With `Clc1ccc(OCc2cnc(Cl)s2)cc1`, the IC50 is 23.1 µM (inactive).

Regarding `CCCCOC(=O)Nc1ccc(N2CCCCC2)cc1`, the IC50 is 38.8 µM (inactive).

On to `COC(=O)c1c(-c2ccccc2)noc1-c1ccccc1`, for which the IC50 is 49.3 µM (inactive).

With `CC1(C)c2ccccc2C(=O)c2ccccc21`, the IC50 is > 100 µM (inactive).

With `COc1ccc2c(c1OC)C(=O)OC2Nc1nc(-c2ccc(-c3ccccc3)cc2)cs1` (stereo unspecified), the IC50 was 33.8 µM (inactive).

For `Fc1ccc(Nc2cccc3nccnc23)cc1`, the IC50 is 47.2 µM (inactive).

On to `C=CCSc1nnc(-c2ccc(Cl)cc2Cl)o1`, for which the IC50 was 25.2 µM (inactive).

Turning to `c1ccc(-c2csc(-c3cccnc3)n2)cc1`, the IC50 is > 100 µM (inactive).

For `O=C1NC2C(=CC(O)C(O)C2O)c2cc3c(cc21)OCO3` (stereo unspecified), the IC50 was > 100 µM (inactive).

Regarding `O=C(C=Cc1ccco1)c1ccc2ccccc2c1`, the IC50 is 31.7 µM (inactive).

For the compound `CCCCOC(=O)Nc1ccc(C(C)C)cc1`, the IC50 is 76.2 µM (inactive).

`Brc1ccc2oc(-c3ccn[nH]3)cc2c1`: the IC50 is 10.3 µM.

In the case of `O=C(/C=C/Nc1ccc(F)c(Cl)c1)c1ccco1`, the IC50 was 16.7 µM.

As to `CCn1nccc1C(=O)Nc1ccc(Cl)c(Cl)c1`, the IC50 was 87.8 µM (inactive).

As for `O=C(NC(=S)Nc1ccc(CN2CCCCC2)cc1)c1cc2ccccc2o1`, the IC50 was 94.9 µM (inactive).

On to `O=C1/C(=C/c2ccccc2)CCCc2ccccc21`, for which the IC50 was 31.6 µM (inactive).

With `CCc1ccc(C(=O)Nc2ccc3nc(C)ccc3c2)cc1`, the IC50 was 14.2 µM.

On to `Clc1ccc(-c2nnc(-c3ccco3)o2)cc1`, for which the IC50 is 15.8 µM.

Consider `O=C(/C=C/c1ccc(Cl)cc1)Nc1ccc(CN2CCOCC2)cc1`, for which the IC50 was 23.3 µM (inactive).

For the compound `Clc1ccc(Nc2nc(-c3cccs3)cs2)nc1`, the IC50 is 11.5 µM.

`Cc1ccccc1-c1noc(-c2cccs2)n1`: the IC50 is 9.31 µM.

`O=C(c1ccc(Cl)cc1)c1cc([N+](=O)[O-])ccc1N1CCOCC1`: the IC50 is > 100 µM (inactive).

`Brc1ccc(CSc2nnc(-c3cccnc3)o2)cc1`: the IC50 was 29.1 µM (inactive).

As for `O=C1c2cc(Br)ccc2OC2C=CC=CC12` (stereo unspecified), the IC50 is > 100 µM (inactive).

Regarding `Brc1ccc(-c2nc(-c3ccccn3)no2)o1`, the IC50 was 35.8 µM (inactive).

In the case of `CCCCCCCCNc1ncnc2ccccc12`, the IC50 was > 100 µM (inactive).

Turning to `c1ccc(-c2cnc(-c3ccccc3)nn2)cc1`, the IC50 is > 100 µM (inactive).

With `c1ccc(-c2nc(-c3ccncc3)no2)cc1`, the IC50 is 24.7 µM (inactive).

Turning to `COC(=O)c1cccc(CC2(C)C(=O)Nc3ccc(OC(F)(F)F)cc32)c1` (stereo unspecified), the IC50 is > 100 µM (inactive).

In the case of `Cc1ccc(CSc2nnc(-c3ccco3)o2)cc1`, the IC50 was 23.8 µM (inactive).

In the case of `O=C(/C=C/c1ccco1)Nc1nc(-c2ccccc2)cs1`, the IC50 was 42.6 µM (inactive).

Regarding `O=[N+]([O-])c1cccc(-c2c(-c3ccccc3)ncc3cc(F)ccc23)c1`, the IC50 was > 100 µM (inactive).

Take `Fc1ccc(COc2ccc(-c3nnco3)cc2)c(Cl)c1`: the IC50 is 6.4 µM.

Consider `O=[N+]([O-])c1ccc(OCc2cnc(Cl)s2)cc1`, for which the IC50 was 13.7 µM.

For `CCCCOc1ccc(C(=O)OC2CC(C)N(C)CC2C)cc1` (stereo unspecified), the IC50 was 29.2 µM (inactive).

For the compound `Cc1ccc(-c2noc(-c3cccs3)n2)cc1`, the IC50 was 12.4 µM.

`O=[N+]([O-])c1ccc(COc2ccc(CN3CCCC3)cc2)cc1`: the IC50 was 8.62 µM.

`Cc1nc2ccccc2cc1OCc1ccc(Cl)cc1`: the IC50 was > 100 µM (inactive).

For `O=C(/C=C/Nc1ccc(F)cc1F)c1cccs1`, the IC50 was 5.04 µM.

On to `O=C(Nc1ccc(OC(F)F)c(Cl)c1)c1ccccn1`, for which the IC50 is 5.09 µM.
